Experiment [1] has as its system rat SCI model. As to the kind of experiment: BBB locomotor test in rat SCI model. Particulars: for average BBB score: at PI 10w. The class given is in vivo, Sprague-Dawley (SD) rats. As for the experimental part:
For the establishment of the mouse and rat SCI models, we followed methods consistent with those of previous studies.[65]–[67] In mice, a laminectomy was performed at thoracic level 10 (T10), and self-closing forceps (11485-11, Fine Science Tools; 0.10 × 0.06 mm tip, 11 cm) were applied to the exposed spinal cord for 3 s to induce injury. In rats, a laminectomy was performed at thoracic level 9 (T9), followed by the application of the same self-closing forceps (11485-11, Fine Science Tools) for 10 s. Each “Sham” group or “SCI” group indicates animals operated by only laminectomy or SCI, respectively.
(S)-2-(((4’-Trifluoromethylbiphenyl-4-yl)methyl)amino)propanamide methane-sulfonate (KDS2010) was dissolved in distilled water. For SD rats, KDS2010 was administered via the drinking water ad libitum. […] To evaluate dose-dependent effects, additional groups received 20 mg/kg/day or 30 mg/kg/day starting at PI 2 weeks. To achieve consistent exposure across animals, we meticulously monitored the daily water intake and body weight of each rat throughout the study. As shown in the Extended Data (Supplementary Table 1), water consumption was calculated weekly via a formula based on body weight (e.g., d.w = weight × 0.09 at week 0; gradually tapering to weight × 0.075 by weeks 8–9). Importantly, all animals were confirmed to have consumed the entirety of the provided medicated water each day, ensuring full ingestion of the intended dose (10 mg/kg/day for the majority of groups, and 20/30 mg/kg/day for the dose-dependent experiments).
Behavioral test was performed every week for a total of 11 weeks (1 week before and 10 weeks after the surgical operation) to assess locomotor recovery. The BBB motor score[22] or BMS score[17] was used to evaluate the quality of hindlimb movement during open field locomotion in rats or mice, respectively. In the first recovery phase, the range of joint movement and the presence of the foot closure on the floor were checked. In the second phase, the recovery of weighted stepping was checked. In the third phase, gait coordination and tail movement were assessed. These scores are “ordinal and the magnitude of behavioral change between ranks may not be consistent,” as originally described.[17] To perform the group allocation in a blinded manner during data collection, animal preparation and behavior tests were performed by at least two different investigators.
In the BBB locomotor test with drug administration beginning at PI 2w, the animals were initially subjected to injury, and then divided into two groups at PI 2w based on the basis of similar averaged BBB scores. Subsequently, these groups were treated with either the vehicle (SCI + V) or the drug (SCI+drug) from PI 2w. To exclude incompletely generated severe rat SCI animals, we established the following criteria: a score difference of more than 4 between PI 1w and 2w, and a score exceeding 8 at PI 2w.

Experiment [2] relates to rat SCI model. As to the kind of experiment: Western blot and GABA ELISA of rat spinal cord tissue. Particulars: PI 10w. The class given is in vivo. As for the experimental part: Approximately 24 h after drug treatment, primary mouse spinal cord astrocytes or spinal cord tissues were lysed in RIPA buffer (MB030-0050, ROCKLAND) containing protease and phosphatase inhibitors (1861280, Thermo Fisher Scientific). The protein concentration was measured using the Pierce™ BCA Protein Assay Kit (Thermo Fisher Scientific). Each sample was then used separately for Western blot or GABA ELISA analysis. Western blot analysis was performed following established protocols,[73],[74] with 20 μg of spinal cord tissue or 10 μg of astrocyte protein samples were loaded onto SDS-PAGE gels, transferred to PVDF membranes, and blocked with 5% non-fat milk. The membranes were incubated overnight at 4 °C with primary antibodies, including rabbit anti-MAOB (1:1000, Abcam), rabbit anti-BDNF (1:1000, Abcam), mouse anti-TrkB (1:1000, R&D Systems), and rabbit anti-β-actin (1:1000, Cell Signaling Technology). […] The bands were visualized using enhanced chemiluminescence, and band intensity was quantified using ImageJ software. For enzyme-linked immunosorbent assay (ELISA), GABA quantification was performed using an ELISA kit (BA-E-2500, ImmuSmol) according to the manufacturer’s instructions, utilizing 20 μg of protein extracted from spinal cord tissues.
A general note: In western blotting, separated proteins are transferred to a membrane and probed.

Experiment [3] relates to monkey SCI model. Description: Monkey SCI model: tissue sections and immunohistochemistry. The class given is in vivo, cynomolgus macaques (Macaca fascicularis). The procedure:
For the nonhuman primate SCI model, female cynomolgus macaques were anesthetized with Zoletil 50 (8–10 mg/kg; Virbac Korea) and isotropy 100. Laminectomy was performed at thoracic level 8 under X-ray guidance, and the SCI model was established using a vessel clip (Micro Serrefine Clamp, 1805501, Fine Science Tools; 60 g pressure, 19 mm) applied for 10 min. After surgery, the monkeys were monitored until full recovery, with precautions taken to prevent hypothermia and dehydration. For pressure ulcers, antibacterial drugs were administered, and sugar therapy was applied as needed.
To determine the appropriate dosing for macaques, interspecies dose translation was performed according to the U.S. FDA’s Guidance for Industry (2005), using body surface area (BSA)-based conversion with species-specific Km values.
On the basis of this calculation, two doses were selected: 3 mg/kg/day (~60% of the HED) for evaluating the minimal effective dose, and 10 mg/kg/day (approximately 2× HED) for assessing upper tolerability and therapeutic margin.
Immunohistochemistry was performed as previously described.[70] The tissue sections were blocked and treated with primary antibodies. After overnight incubation at 4 °C, species-specific fluorescent secondary antibodies were applied for visualization. The tissue sections were then stained with 4’,6-diamidino-2-phenylindole (DAPI) during mounting. This protocol allows a detailed assessment of various cellular markers involved in SCI and recovery processes.

For experiment [4], the system named is Alzheimer’s disease mouse model. Particulars: cited from earlier work.

Each structure is given as a SMILES string.

Turning to `CS(=O)(=O)O.C[C@H](NCc1ccc(-c2ccc(C(F)(F)F)cc2)cc1)C(N)=O` [KDS2010, (S)-2-(((4’-Trifluoromethylbiphenyl-4-yl)methyl)amino)propanamide methane-sulfonate], in experiment [1] (10, 20, and 30 mpk from subacute phase, at 10w PI), the BBB locomotor scores result is “dose-dependent improvement”. For the same molecule, the “average BBB score” value is recorded as 10.62 in experiment [1] (SCI + KDS 2w: 10 mg/kg/day in drinking water from PI 2w (subacute)) and 15.36 in experiment [1] (SCI + KDS 1 d/Re: 10 mpk from acute phase (PI 1 d), recovery subgroup). Moreover, the “recovery in BBB locomotor test and ladder rung test” value in experiment [1] (SCI + KDS 6w: 10 mpk from chronic phase (PI 6w)) was “significant motor recovery”. The “behavioral recovery in BBB locomotor test” value in experiment [1] (SCI+KDS1d/No: 10 mpk from acute phase, no-recovery subgroup) is on record as “did not show any behavioral recovery”. For the same molecule, the “pharmacologically active dose (PAD)” value in experiment [1] (SD rats, for 8 weeks) worked out at 10 mpk; in experiment [3] (cynomolgus macaques, for 5 weeks), 3 mpk. Also, in experiment [2] (SCI + KDS 1 d/Re), the “GABA levels (ELISA)” value is “significant reduction”. Also, the “MAOB protein level (Western blotting)” value in experiment [2] (SCI+KDS 1d/Re vs SCI+V) is on record as “significantly reduced”. The “hematoma and cavity formation at the injury site” value in experiment [3] (3 or 10 mpk from the acute phase, PI 5w) is “significantly reduced”. For the same molecule, the “MAP2 intensity vs SCI + V” value in experiment [3] (SCI + KDS 3 mpk, PI 5w) is on record as “tended to increase”; in experiment [3] (SCI + KDS 10 mpk, PI 5w), “significantly greater”. For the same molecule, the “astrocytic MAOB” value in experiment [3] (both KDS treatment groups (3 and 10 mpk), PI 5w) was “significantly reduced”. Moreover, the “learning and memory impairment” value in experiment [4] was “reverse learning and memory impairment”.
